Data on twelve molecules can be found in patent publication US20110046191A1, “COMBINATION OF A MUSCARINIC RECEPTOR ANTAGONIST AND A BETA-2-ADRENOCEPTOR AGONIST” (ARGENTA DISCOVERY LTD., priority 2007, published 2011).

Each structure is given as a SMILES string. Read-outs that look alike come from different tables or passages of the source.

In data set [1] the test system is isolated guinea-pig tracheal rings precontracted with methacholine. As to the kind of experiment: Isolated tracheal rings from guinea-pig preconstricted with methacholine. It counts as cell-based. To be noted: for inhibition at 0.001 µM: Cavia porcellus, read-out: % inhibition of 1 μM Methacholine induced tone; for % inhibition of 1 μM Methacholine induced tone: Formoterol 1 nM, Compound A or B 10 nM. Here is the method: Evaluation of Compound Activity on Isolated Tracheal Rings from Guinea-Pig Preconstricted with Methacholine. […] Male albino Dunkin Hartley guinea-pigs (300-350 g) were killed by cervical dislocation and the trachea excised. Adherent connective tissue was removed and the trachea cut into ring segments (2-3 mm wide). These were suspended in 10 mL organ baths containing a modified Krebs solution composition (mM): NaCl 117.56, KCl 5.36, NaH2PO4 1.15, MgSO4 1.18, glucose 11.10, NaHCO3 25.00 and CaCl2 2.55. […] The tracheal rings were suspended between two stainless steel hooks, one attached to an isometric force transducer and the other to a stationary support in the organ bath. Changes in isometric force were recorded. Acetyl-β-methylcholine chloride (Methacholine), Indomethacin, Corticosterone-21-acetate, Phentolamine hydrochloride, Ascorbic acid, CGP20712A methanesulphate were obtained from the Sigma Chemical Company. […] At the beginning of each experiment a force of 1.0 g·wt. was applied to the tissues and this was reinstated over a 30 min equilibration period until it remained steady. […] Tissues were washed by exchanging the bathing Krebs solution three times. […] Data were collected using the ADInstruments Chart5 for windows software, the tension generated was measured before addition of methacholine and after its response had reached plateau. […] All responses were expressed as percentage inhibition of the methacholine-induced contraction. The results are depicted in FIG. 6 and Table 2, wherein compound A is (MA2). […] Tissues were washed by exchanging the bathing Krebs solution three times. […] Data were collected using the ADInstruments Chart5 for windows software, the tension generated was measured before addition of methacholine and after its response had reached plateau. […] All responses were expressed as percentage inhibition of the methacholine-induced contraction. The results are depicted in FIG. 7 and Table 3, wherein compound B is (MA11).

The target in data set [2] is T1, human muscarinic receptors (M3) (Homo sapiens, UniProt P20309).
T1 construct: purchased
As to the kind of experiment: Muscarinic Receptor Radioligand Binding Assay ([3H]-NMS). As to conditions: membranes expressing human M3. The procedure:
The inhibitory effects of compounds of the muscarinic antagonists were determined by a Muscarinic Receptor Radioligand Binding Assay.
Radioligand binding studies utilising [^3H]-N-methyl scopolamine ([^3H]-NMS) and commercially available cell membranes expressing the human muscarinic receptors (M2 or M3) were used to assess the affinity of muscarinic antagonists for M2 and M3 receptors. Membranes in TRIS buffer were incubated in 96-well plates with [^3H]-NMS and M3 antagonist at various concentrations for 3 hours. Membranes and bound radioligand were then harvested by filtration and allowed to dry overnight. Scintillation fluid was then added and the bound radioligand counted using a Canberra Packard Topcount scintillation counter

A short description of data set [3]: Gravimetric vapour sorption (GVS). It counts as physicochemical. To be noted: at 80% RH, ambient temperature. The procedure:
GVS profiles were measured using a Dynamic Vapour Sorption DVS-1 instrument. The solid sample ca. 1-5 mg was placed into a glass vessel and the weight of the sample was recorded during a dual cycle step method (40 to 90 to 0 to 90 to 0% relative humidity (RH), in steps of 10% RH). GVS profiles were recorded at ambient temperature.

Data set [4] has as its system Methacholine-induced bronchoconstriction in the guinea pig. As to the kind of experiment: Lung function in anaesthetised guinea pigs: methacholine-induced bronchoconstriction. Format: in vivo. As to conditions: after 5 μg/kg methacholine i.v. Here is the method: Evaluation of Lung Function in Anaesthetised Guinea Pigs.
Male Dunkin-Hartley guinea pigs (300-600 g) were weighed and dosed with vehicle (0.05M phosphate, 0.1% Tween 80, 0.6% saline, pH 6) or compound via the intratracheal route under recoverable gaseous anaesthesia (5% halothane in oxygen). Animals were dosed with compound or vehicle two hours prior to the administration of methacholine. Guinea pigs were anaesthetised with pentobarbitone (1 mL/kg of 60 mg/mL solution i.p.) approximately 30 minutes prior to the first bronchoconstrictor administration. The trachea was cannulated and the animal ventilated using a constant volume respiratory pump (Harvard Rodent Ventilator model 683) at a rate of 60 breath/min and a tidal volume of 5 mL/kg. A jugular vein was cannulated for the administration of methacholine or maintenance anaesthetic (0.1 mL of pentobarbitone solution, 60 mg/mL, as required).
The animals were transferred to a Flexivent System (SCIREQ, Montreal, Canada) in order to measure airway resistance. The animals were ventilated (quasi-sinusoidal ventilation pattern) at 60 breaths/min at a tidal volume of 5 mL/kg. A positive end expiratory pressure of 2-3 cm H2O was applied. Respiratory resistance was measured using the Flexivent “snapshot” facility (1 second duration, 1 Hz frequency). Once a stable baseline resistance value had been obtained the animals were given methacholine in ascending doses (0.5, 1, 2, 3 and 5 μg/kg, i.v) at approximately 4-minute intervals via the jugular catheter. After each administration of bronchoconstrictor the peak resistance value was recorded. Guinea pigs were euthanised with approximately 1.0 mL pentobarbitone sodium (Euthatal) intravenously after the completion of the lung function measurements.
Percentage bronchoprotection produced by a compound was calculated at each dose of brochoconstrictor as follows:
Where % change Rveh is the mean of the maximum percentage change in airway resistance in the vehicle treated group. The results reported were measured after 5 μg/kg methacholine and were expressed as percentage bronchoprotection (mean±s.e.mean).
Guinea pigs were dosed with vehicle, 3 and 27 μg/kg compound (BA1), 0.2 μg/kg compound (MA2) (Crystalline Form A) or a combination of 3 μg/kg Compound (BA1) and 0.2 μg/kg Compound (MA2) via the intratracheal route. Administration of increasing intravenous doses of methacholine (0.5, 1, 2, 3 and 5 μg/kg) evoked dose-related bronchoconstriction in the vehicle treated animals ranging from 13±2.6% at 0.5 μg/kg to 2530±280% at 5 μg/kg two hours after vehicle administration (n=9).
[…] Administration of increasing intravenous doses of methacholine (0.5, 1, 2, 3 and 5 μg/kg) evoked dose-related bronchoconstriction in the vehicle treated animals ranging from 14±2.6% at 0.5 μg/kg to 2240±269% at 5 μg/kg two hours after vehicle administration (n=10).

[5] abbreviates: MA2 0.2 μg/kg intratracheal, 2 hours prior to methacholine.
Setting [6] is: MA11 at 0.2 μg/kg intratracheal.

T1 sequence (P20309 whole entry): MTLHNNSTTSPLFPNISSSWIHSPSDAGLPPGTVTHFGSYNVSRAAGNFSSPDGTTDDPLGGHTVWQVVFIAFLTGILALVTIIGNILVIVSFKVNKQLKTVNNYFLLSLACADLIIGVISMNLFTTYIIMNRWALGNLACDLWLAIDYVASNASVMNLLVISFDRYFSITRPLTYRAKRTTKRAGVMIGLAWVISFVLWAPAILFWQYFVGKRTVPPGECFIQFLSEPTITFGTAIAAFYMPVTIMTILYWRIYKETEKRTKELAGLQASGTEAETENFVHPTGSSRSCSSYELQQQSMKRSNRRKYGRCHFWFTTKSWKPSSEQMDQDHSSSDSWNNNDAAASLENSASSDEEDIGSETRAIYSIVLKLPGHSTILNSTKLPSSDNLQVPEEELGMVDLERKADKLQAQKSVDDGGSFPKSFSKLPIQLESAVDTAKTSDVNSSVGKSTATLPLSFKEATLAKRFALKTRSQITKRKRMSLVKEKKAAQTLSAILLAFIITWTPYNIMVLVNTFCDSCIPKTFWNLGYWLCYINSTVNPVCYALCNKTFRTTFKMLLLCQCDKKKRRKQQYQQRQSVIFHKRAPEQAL

Regarding `COc1ccc(CC(C)NCC(O)c2ccc(O)c(NC=O)c2)cc1` (centres unmarked) [Formoterol, N-[2-hydroxy-5-[(1)-1-hydroxy-2-[[(1)-2-(4-methoxyphenyl)-1-methylethyl]amino]ethyl]phenyl]-formamide, reference compound], the inhibition (as a rule, the relative decrease from the control value, in per cent) at 0.001 µM was 21% in data set [1] (10 min); 37% in data set [1] (20 min); 41% in data set [1] (0.5 h); 42% in data set [1] (40 min); 44% in data set [1] (50 min).

`C[N+](C)(CCCOc1ccccc1)Cc1cnc([C@@](O)(c2ccccc2)C2CCCCC2)o1` [MA1, [2-((S)-Cyclohexyl-hydroxy-phenyl-methyl)-oxazol-5-ylmethyl]-dimethyl-(3-phenoxy-propyl)-ammonium bromide]: the affinity in data set [2] corresponds to a Ki of 9400 pM.

In data set [3], `C[N+](C)(CCCOc1ccccc1)Cc1cnc([C@](O)(c2ccccc2)C2CCCCC2)o1.[Br-]` [MA2 Crystalline Form A, [2-((R)-Cyclohexyl-hydroxy-phenyl-methyl)-oxazol-5-ylmethyl]-dimethyl-(3-phenoxy-propyl)-ammonium bromide] gave a GVS weight increase of 0.8 % w/w.

`C[N+](C)(CCCOc1ccccc1)Cc1cnc([C@](O)(c2ccccc2)C2CCCCC2)o1.[Br-]` [MA2, [2-((R)-Cyclohexyl-hydroxy-phenyl-methyl)-oxazol-5-ylmethyl]-dimethyl-(3-phenoxy-propyl)-ammonium bromide]: in data set [2], the Ki (usually the equilibrium dissociation constant of an inhibitor or competing ligand from its target) came to 200 pM. Further, the “% inhibition of 1 μM Methacholine induced tone” value stood at 23% in data set [1] (10 min); 62% in data set [1] (20 min); 94% in data set [1] (30 min); 104% in data set [1] (40 min); 106% in data set [1] (50 min). Further, the increase in resistance in data set [4] (setting [5]) is given as 2210±268%. Also, in data set [4] (setting [5]), the “inhibition of methacholine-induced bronchoconstriction” value came out at 13%.

In turn, `C[N+](C)(CCOCCc1ccccc1)Cc1cnc([C@](O)(c2ccccc2)C2CCCCC2)o1` [MA3, [2-((R)-Cyclohexyl-hydroxy-phenyl-methyl)-oxazol-5-ylmethyl]-dimethyl-(2-phenethyloxy-ethyl)-ammonium bromide] had an inhibition constant (Ki) in data set [2] of 600 pM.

For `C[N+](C)(CCCOc1ccc(Cl)c(Cl)c1)Cc1cnc([C@](O)(c2ccccc2)C2CCCCC2)o1` [MA4, [2-((R)-Cyclohexyl-hydroxy-phenyl-methyl)-oxazol-5-ylmethyl]-[3-(3,4-dichloro-phenoxy)-propyl]-dimethyl-ammonium bromide], the Ki in data set [2] stood at 900 pM.

As to `C[N+](C)(CCOCc1ccc(Cl)c(Cl)c1)Cc1cnc([C@](O)(c2ccccc2)C2CCCCC2)o1` [MA5, [2-((R)-Cyclohexyl-hydroxy-phenyl-methyl)-oxazol-5-ylmethyl]-[2-(3,4-dichloro-benzyloxy)-ethyl]-dimethyl-ammonium bromide], the Ki in data set [2] was 2100 pM.

As for `C[N+](C)(CCOCc1ccc(Cl)cc1)Cc1cnc([C@](O)(c2ccccc2)C2CCCCC2)o1` [MA6, [2-(4-chloro-benzyloxy)-ethyl]-[2-((R)-cyclohexyl-hydroxy-phenyl-methyl)-oxazol-5-ylmethyl]-dimethyl-ammonium bromide], affinity in data set [2] was put at a Ki of 600 pM.

In data set [3], `C[N+](C)(CCCOc1ccccc1)Cc1cnc([C@](O)(c2ccccc2)C2CCCCC2)o1` [MA7 Form 1, [2-((R)-Cyclohexyl-hydroxy-phenyl-methyl)-oxazol-5-ylmethyl]-dimethyl-(3-phenoxy-propyl)-ammonium hemi-naphthalene-1,5-disulfonate] came in with a GVS weight increase of 3.1 % w/w.

In turn, `C[N+](C)(CCCOc1ccccc1)Cc1cnc([C@](O)(c2ccccc2)C2CCCCC2)o1` [MA7 Form 2, [2-((R)-Cyclohexyl-hydroxy-phenyl-methyl)-oxazol-5-ylmethyl]-dimethyl-(3-phenoxy-propyl)-ammonium hemi-naphthalene-1,5-disulfonate] registered a GVS weight increase in data set [3] of 0.7 % w/w.

Take `C[N+](C)(CCCOc1ccccc1)Cc1cnc([C@](O)(c2ccccc2)C2CCCCC2)o1` [MA7 Form 3, [2-((R)-Cyclohexyl-hydroxy-phenyl-methyl)-oxazol-5-ylmethyl]-dimethyl-(3-phenoxy-propyl)-ammonium hemi-naphthalene-1,5-disulfonate]: the GVS weight increase in data set [3] is 3.0 % w/w.

With `C[N+](C)(CCOCc1ccc(Cl)cc1)Cc1cnc([C@](O)(c2ccccc2)C2CCCCC2)o1` [MA11, [2-(4-chloro-benzyloxy)-ethyl]-[2-((R)-cyclohexyl-hydroxy-phenyl-methyl)-oxazol-5-ylmethyl]-dimethyl-ammonium hemi-naphthalene-1,5-disulfonate], the “% inhibition of 1 μM Methacholine induced tone” value in data set [1] (10 min) is 11%; in data set [1] (20 min), 29%; in data set [1] (30 min) it was 49%; in data set [1] (40 min) it was 67%; in data set [1] (50 min), 84%. The increase in resistance in data set [4] (setting [6]) was 1880±272%. Moreover, in data set [4] (setting [6]), the “inhibition of methacholine-induced bronchoconstriction” value was found to be 16%.
